Reference: ChEMBL document CHEMBL5584321, “Chemoenzymatic Synthesis of DNP-Functionalized FGFR1-Binding Peptides as Novel Peptidomimetic Immunotherapeutics for Treating Lung Cancer” (J Med Chem, 2024)
Calls of active or inactive are those of the source. No cut-off for these calls is given here. Where a SMILES comes first, the peptide text is derived from it. The star is where a group is joined. X1 = O=[N+]([O-])c1ccc(OCCOCCOCCOCCOCCOCCN*)c([N+](=O)[O-])c1

Experiments:
NCI-H1581 [1] = assay: Binding affinity to FGFR1c in human NCI-H1581 cells assessed as fold change in fluorescence intensity at 10 uM by antibody recruiting based flow cytometry relative to Pep1; format: cell-based
NCI-H1581 [2] = assay: Antitumor activity against human NCI-H1581 cells xenografted BALB/c mouse model assessed as inhibition of tumor growth at 20 mg/kg,SC administrated once daily for 12 days relative to control; format: functional; conditions: NCI-H1581, 288 h, time 12 day
[3] = Toxicity in BALB/c mouse xenografted with human NCI-H1581 cells assessed as change in heart weight at 20 mg/kg,SC administrated once daily for 12 days; format: organism-based; conditions: in vivo, 288 h, time 12 day
NCI-H1581 [4] = assay: Antitumor activity against human NCI-H1581 cells xenografted BALB/c mouse model assessed as induction of apoptosis by measuring increase in TUNEL positive cells at 20 mg/kg,SC administrated once daily for 12 days; format: functional, organism-based; conditions: time 12.0 day
L6 [5] = assay: Antiproliferative activity against FGF2-induced rat L6 cells stably expressing human full-length FGFR1c assessed as inhibition of cell growth incubated for 36 hrs by CCK-8 assay; format: functional, cell-based
L6 [6] = assay: Binding affinity to human full-length wild type FGFR1c stably expressed in rat L6 cells assessed as increase in green fluorescence signal incubated for 1 hr by Alexa-488 staining based confocal fluorescence microscopic analysis; format: cell-based
L6 [7] = assay: Binding affinity to FGFR1c in rat L6 cells assessed as increase in green fluorescence signal incubated for 1 hr by Alexa-488 staining based confocal fluorescence microscopic analysis; format: cell-based
[8] = Toxicity in BALB/c mouse xenografted with human NCI-H1581 cells assessed as change in liver weight at 20 mg/kg,SC administrated once daily for 12 days; format: organism-based; conditions: in vivo, 288 h, time 12 day
L6 [9] = assay: Induction of apoptosis in FGF2-induced rat L6 cells stably expressing human full-length FGFR1c assessed as upregulation of cleaved PARP expression at 50 uM incubated for 24 hrs by Western blotting analysis; format: functional, cell-based
NCI-H1581 [10] = assay: Induction of cell lysis in human NCI-H1581 cells at 1 uM incubated for 1 hr by complement dependent cytotoxicity based CCK-8 assay relative to control; format: functional
NCI-H1581 [11] = assay: Binding affinity to FGFR1c in human NCI-H1581 cells assessed as fluorescence intensity at 10 uM by antibody recruiting based flow cytometry; format: cell-based
[12] = Toxicity in BALB/c mouse xenografted with human NCI-H1581 cells assessed as cell necrosis in heart at 20 mg/kg,SC administrated once daily for 12 days by hematoxylin and eosin staining based analysis; format: organism-based; conditions: in vivo, 288 h, time 12 day
L6 [13] = assay: Antiproliferative activity against FGF2-induced rat L6 cells stably expressing human full-length FGFR1c assessed as inhibition of cell growth at 100 uM incubated for 36 hrs by CCK-8 assay relative to control; format: functional
[14] = Half life in immunized Sprague-Dawley rat at 1.5 mg/kg,SC administration measured upto 24 hrs by fluorescence based microplate reader assay; format: ADME, organism-based; conditions: in vivo
NCI-H1581 [15] = assay: Binding affinity to FGFR1c in human NCI-H1581 cells assessed as increase in fluorescence signal by antibody recruiting based flow cytometry; format: cell-based
NCI-H1581 [16] = assay: Antitumor activity against human NCI-H1581 cells xenografted BALB/c mouse model assessed as tumor necrosis at 20 mg/kg,SC administrated once daily for 12 days by hematoxylin and eosin staining based analysis; format: functional, organism-based; conditions: time 12.0 day
L6 [17] = assay: Binding affinity to human full-length wild type FGFR1c stably expressed in rat L6 cells assessed as fold change in fluorescence intensity at 10 uM by antibody recruiting based flow cytometry relative to Pep1; format: cell-based
[18] = Renal toxicity in BALB/c mouse xenografted with human NCI-H1581 cells assessed as change in urea level at 20 mg/kg,SC administrated once daily for 12 days; format: organism-based; conditions: in vivo, 288 h, time 12 day
[19] = Toxicity in BALB/c mouse xenografted with human NCI-H1581 cells assessed as cell necrosis in lung at 20 mg/kg,SC administrated once daily for 12 days by hematoxylin and eosin staining based analysis; format: organism-based; conditions: in vivo, 288 h, time 12 day
[20] = Renal toxicity in BALB/c mouse xenografted with human NCI-H1581 cells assessed as change in creatinine level at 20 mg/kg,SC administrated once daily for 12 days; format: organism-based; conditions: in vivo, 288 h, time 12 day
[21] = Toxicity in BALB/c mouse xenografted with human NCI-H1581 cells assessed as change in lung weight at 20 mg/kg,SC administrated once daily for 12 days; format: organism-based; conditions: in vivo, 288 h, time 12 day
[22] = Cmax in immunized Sprague-Dawley rat at 1.5 mg/kg,SC administration measured upto 24 hrs by fluorescence based microplate reader assay; format: ADME, organism-based; conditions: in vivo
L6 [23] = assay: Binding affinity to human full-length wild type FGFR1c stably expressed in rat L6 cells assessed as increase in fluorescence signal by antibody recruiting based flow cytometry; format: cell-based
[24] = AUC in immunized Sprague-Dawley rat at 1.5 mg/kg,SC administration measured upto 24 hrs by fluorescence based microplate reader assay; format: ADME, organism-based; conditions: in vivo
L6 [25] = assay: Induction of apoptosis in FGF2-induced rat L6 cells stably expressing human full-length FGFR1c assessed as downregulation of BCL-2 expression at 50 uM incubated for 24 hrs by Western blotting analysis; format: functional, cell-based
L6 [26] = assay: Binding affinity to human full-length wild type FGFR1c stably expressed in rat L6 cells assessed as fluorescence intensity at 10 uM by antibody recruiting based flow cytometry; format: cell-based
[27] = Toxicity in BALB/c mouse xenografted with human NCI-H1581 cells assessed as change in spleen weight at 20 mg/kg,SC administrated once daily for 12 days; format: organism-based; conditions: in vivo, 288 h, time 12 day
[28] = Toxicity in BALB/c mouse xenografted with human NCI-H1581 cells assessed as cell necrosis in spleen at 20 mg/kg,SC administrated once daily for 12 days by hematoxylin and eosin staining based analysis; format: organism-based; conditions: in vivo, 288 h, time 12 day
[29] = Hepatotoxicity in BALB/c mouse xenografted with human NCI-H1581 cells assessed as change in ALT level at 20 mg/kg,SC administrated once daily for 12 days; format: toxicity, organism-based; conditions: in vivo, 288 h, time 12 day
NCI-H1581 [30] = assay: Antitumor activity against human NCI-H1581 cells xenografted BALB/c mouse model assessed as inhibition of tumor proliferation by measuring decrease in Ki67 positive cells at 20 mg/kg,SC administrated once daily for 12 days; format: functional, organism-based; conditions: time 12.0 day
L6 [31] = assay: Induction of cell lysis in rat L6 cells at 1 uM incubated for 1 hr by complement dependent cytotoxicity based CCK-8 assay relative to control; format: functional
[32] = Toxicity in BALB/c mouse xenografted with human NCI-H1581 cells assessed as inflammation in heart at 20 mg/kg,SC administrated once daily for 12 days by hematoxylin and eosin staining based analysis; format: organism-based; conditions: in vivo, 288 h, time 12 day
[33] = Toxicity in BALB/c mouse xenografted with human NCI-H1581 cells assessed as inflammation in kidney at 20 mg/kg,SC administrated once daily for 12 days by hematoxylin and eosin staining based analysis; format: organism-based; conditions: in vivo, 288 h, time 12 day
[34] = Toxicity in BALB/c mouse xenografted with human NCI-H1581 cells assessed as cell necrosis in liver at 20 mg/kg,SC administrated once daily for 12 days by hematoxylin and eosin staining based analysis; format: organism-based; conditions: in vivo, 288 h, time 12 day
[35] = Toxicity in BALB/c mouse xenografted with human NCI-H1581 cells assessed as inflammation in lung at 20 mg/kg,SC administrated once daily for 12 days by hematoxylin and eosin staining based analysis; format: organism-based; conditions: in vivo, 288 h, time 12 day
[36] = Binding affinity to CM5 sensor chip immobilized human full-length wild type FGFR1c assessed as dissociation constant by SPR analysis

Which results are given for CC(C)C[C@H](NC(=O)[C@H](C)NC(=O)[C@@H](NC(=O)[C@H](Cc1ccc(O)cc1)NC(=O)[C@H](Cc1c[nH]c2ccccc12)NC(=O)[C@H](CO)NC(=O)[C@H](CO)NC(=O)[C@H](Cc1ccc(O)cc1)NC(=O)[C@H](CCCCN)NC(=O)[C@H](CCCNC(=N)N)NC(=O)[C@H](CO)NC(=O)[C@H](CCCNC(=N)N)NC(=O)[C@@H](N)Cc1ccc(O)cc1)C(C)C)C(=O)N[C@@H](CCCCN)C(=O)N[C@@H](CCCNC(=N)N)C(=O)N[C@@H](CC(C)C)C(=O)N1CCC[C@H]1C(=O)N[C@@H](CCC(=O)O)C(=O)N[C@H](C(=O)NCC(=O)NCC(=O)NCC(=O)NCCOCCOCCOCCOCCOCCOc1ccc([N+](=O)[O-])cc1[N+](=O)[O-])[C@@H](C)O (H-YRSRKYSSWYVALKRLPETGGG-X1)?
fold change (FC) (NCI-H1581 [1]): 36; inhibition in vivo at 20 mg/kg (NCI-H1581 [2]): 72.7%; Activity [3]: Non-Toxic; Activity (NCI-H1581 [4]): Active; Activity (L6 [5]): Dose-Dependent Effect; Activity (L6 [6]): Active; Activity (L6 [7]): inactive; Activity [8]: Non-Toxic; Activity (L6 [9]): Active; Activity (NCI-H1581 [10]): 44.5%; Flu intensity (NCI-H1581 [11]): 5.7 10^3No_unit; Activity [12]: Non-Toxic; inhibition at 100 µM (L6 [13]): 100%; half-life [14]: 18.1 h; Activity (NCI-H1581 [15]): Dose-Dependent Effect; Activity (NCI-H1581 [16]): Active; fold change (FC) (L6 [17]): 200; Activity [18]: Non-Toxic; Activity [19]: Non-Toxic; Activity [20]: Non-Toxic; Activity [21]: Non-Toxic; Cmax [22]: 273 ng/mL; Activity (L6 [23]): Dose-Dependent Effect; AUC at 24 h [24]: 2600 ng·h/mL; Activity (L6 [25]): Active; Flu intensity (L6 [26]): 1.8 10^4No_unit; Activity [27]: Non-Toxic; Activity [28]: Non-Toxic; Activity [29]: Non-Toxic; Activity (NCI-H1581 [30]): Active; Activity (L6 [31]): inactive; Activity [32]: Non-Toxic; Activity [33]: Non-Toxic; Activity [34]: Non-Toxic; Activity [35]: Non-Toxic; Kd [36]: 5.01 µM
